Data on 27 compounds can be found in article PMC12305662, “Fragment-Based Development of Small Molecule Inhibitors Targeting Mycobacterium tuberculosis Cholesterol Metabolism” (Journal of Medicinal Chemistry, 2025).

Like-named read-outs stand apart in the source and are kept apart here.

The target of one data set is CYP125 (Mycobacterium tuberculosis, UniProt P9WPP1). It counts as binding. As to conditions: for CYP125 Δλmax (nm) HS: high spin population, '-' = no HS maxima present; for CYP125 Δλmax (nm) LS: low spin population, '-' = no LS maxima present; for Δλmax (nm) CYP125, fragment screen: fragment 1 mM, P450 4-6 µM, Soret shift relative to DMSO (393 nm).
A further data set addresses CYP142 (Mycobacterium tuberculosis, UniProt P9WPL5). The conditions noted are these: for CYP142 Δλmax (nm): compound 100 µM, P450 5 µM; for Δλmax (nm) CYP142, fragment screen: fragment 1 mM, P450 4-6 µM, relative to DMSO (418.5 nm).
A further data set concerns the target CYP124 (Mycobacterium tuberculosis, UniProt P9WPP3). The conditions noted are these: fragment 1 mM, P450 4-6 µM; relative to DMSO (419 nm).
The target of a further data set is CYP126 (Mycobacterium tuberculosis, UniProt P9WPN9). The conditions noted are these: fragment 1 mM, P450 4-6 µM; relative to DMSO (418 nm).
Another data set has as its target CYP144 (Mycobacterium tuberculosis, UniProt P9WPL1). The conditions noted are these: fragment 1 mM, P450 4-6 µM; relative to DMSO (421 nm).
Another data set addresses CYP121 (Mycobacterium tuberculosis, UniProt P9WPP7). As to conditions: fragment 1 mM, P450 4-6 µM; relative to DMSO (417 nm).
The target in a further data set is CYP143 (Mycobacterium tuberculosis, UniProt P9WPL3). The conditions noted are these: fragment 1 mM, P450 4-6 µM; relative to DMSO (416 nm).
Where [1] appears, read: compound 100 µM, P450 5 µM, ratio of low spin to high spin CYP125.

Sequence of CYP124 (P9WPP3 whole entry, the tested form may be a part): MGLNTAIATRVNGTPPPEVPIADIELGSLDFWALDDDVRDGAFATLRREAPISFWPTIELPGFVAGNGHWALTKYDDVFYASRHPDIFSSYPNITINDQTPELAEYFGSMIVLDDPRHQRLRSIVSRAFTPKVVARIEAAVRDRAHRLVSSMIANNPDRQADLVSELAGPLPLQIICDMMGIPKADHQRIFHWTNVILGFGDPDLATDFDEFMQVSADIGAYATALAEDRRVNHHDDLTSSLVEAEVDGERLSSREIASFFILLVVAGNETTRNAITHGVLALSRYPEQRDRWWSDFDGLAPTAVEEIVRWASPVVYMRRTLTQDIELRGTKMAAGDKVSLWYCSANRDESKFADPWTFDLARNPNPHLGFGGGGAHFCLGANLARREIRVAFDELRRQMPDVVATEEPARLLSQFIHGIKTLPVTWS
Sequence of CYP121 (P9WPP7 whole entry, the tested form may be a part): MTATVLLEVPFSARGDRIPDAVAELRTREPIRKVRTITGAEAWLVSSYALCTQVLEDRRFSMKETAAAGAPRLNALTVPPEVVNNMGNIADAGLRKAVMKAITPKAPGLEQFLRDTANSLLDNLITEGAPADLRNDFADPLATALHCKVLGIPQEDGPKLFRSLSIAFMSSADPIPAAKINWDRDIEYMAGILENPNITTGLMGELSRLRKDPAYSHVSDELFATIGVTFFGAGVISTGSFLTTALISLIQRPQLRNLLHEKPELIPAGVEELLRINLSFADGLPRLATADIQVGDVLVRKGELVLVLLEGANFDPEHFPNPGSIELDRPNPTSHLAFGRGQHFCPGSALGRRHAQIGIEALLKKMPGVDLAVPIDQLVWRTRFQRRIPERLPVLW
Sequence of CYP143 (P9WPL3 whole entry, the tested form may be a part): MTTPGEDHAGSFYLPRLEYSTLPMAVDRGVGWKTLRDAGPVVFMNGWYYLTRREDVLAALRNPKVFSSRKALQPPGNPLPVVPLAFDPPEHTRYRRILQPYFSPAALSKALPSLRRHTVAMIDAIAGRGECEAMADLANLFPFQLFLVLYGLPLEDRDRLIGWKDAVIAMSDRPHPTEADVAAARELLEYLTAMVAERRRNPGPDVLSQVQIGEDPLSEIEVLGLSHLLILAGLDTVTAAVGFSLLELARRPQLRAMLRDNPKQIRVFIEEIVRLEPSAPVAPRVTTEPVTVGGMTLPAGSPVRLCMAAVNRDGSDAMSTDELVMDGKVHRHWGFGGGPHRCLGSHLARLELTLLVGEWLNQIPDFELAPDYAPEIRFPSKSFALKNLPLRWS
Sequence of CYP144 (P9WPL1 whole entry, the tested form may be a part): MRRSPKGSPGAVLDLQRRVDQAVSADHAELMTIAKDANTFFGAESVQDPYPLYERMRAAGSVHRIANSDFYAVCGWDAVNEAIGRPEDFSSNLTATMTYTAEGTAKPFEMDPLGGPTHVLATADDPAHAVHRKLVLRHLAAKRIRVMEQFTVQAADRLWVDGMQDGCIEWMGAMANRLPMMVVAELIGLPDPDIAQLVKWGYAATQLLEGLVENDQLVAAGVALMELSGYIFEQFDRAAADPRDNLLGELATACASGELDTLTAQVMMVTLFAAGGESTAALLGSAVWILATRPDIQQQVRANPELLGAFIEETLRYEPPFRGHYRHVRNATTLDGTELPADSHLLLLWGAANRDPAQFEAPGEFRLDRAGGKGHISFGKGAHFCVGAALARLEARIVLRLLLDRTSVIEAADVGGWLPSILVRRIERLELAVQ
Sequence of CYP126 (P9WPN9 whole entry, the tested form may be a part): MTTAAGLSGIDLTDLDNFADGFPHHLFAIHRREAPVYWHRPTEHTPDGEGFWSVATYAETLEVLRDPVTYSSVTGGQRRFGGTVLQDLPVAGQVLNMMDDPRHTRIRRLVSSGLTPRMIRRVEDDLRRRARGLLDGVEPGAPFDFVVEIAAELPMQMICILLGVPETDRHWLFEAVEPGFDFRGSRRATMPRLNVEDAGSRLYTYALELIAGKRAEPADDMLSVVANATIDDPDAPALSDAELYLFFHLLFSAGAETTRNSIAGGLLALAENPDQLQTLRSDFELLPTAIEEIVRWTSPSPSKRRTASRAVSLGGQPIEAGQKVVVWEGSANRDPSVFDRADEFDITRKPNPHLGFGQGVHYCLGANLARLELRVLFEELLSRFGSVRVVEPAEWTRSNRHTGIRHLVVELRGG
Sequence of CYP125 (P9WPP1 whole entry, the tested form may be a part): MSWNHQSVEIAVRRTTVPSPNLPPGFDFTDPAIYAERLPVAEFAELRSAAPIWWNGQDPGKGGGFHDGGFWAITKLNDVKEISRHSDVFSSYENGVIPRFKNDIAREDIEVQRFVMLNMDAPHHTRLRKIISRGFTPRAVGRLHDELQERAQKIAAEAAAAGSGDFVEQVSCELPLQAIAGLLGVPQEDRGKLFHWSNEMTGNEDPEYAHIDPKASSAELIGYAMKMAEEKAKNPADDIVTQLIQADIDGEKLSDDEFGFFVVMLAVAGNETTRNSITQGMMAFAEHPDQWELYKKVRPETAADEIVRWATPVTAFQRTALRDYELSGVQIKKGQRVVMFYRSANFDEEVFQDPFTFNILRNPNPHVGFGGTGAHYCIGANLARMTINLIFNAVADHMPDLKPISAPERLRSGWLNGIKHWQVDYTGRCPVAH
Sequence of CYP142 (P9WPL5 whole entry, the tested form may be a part): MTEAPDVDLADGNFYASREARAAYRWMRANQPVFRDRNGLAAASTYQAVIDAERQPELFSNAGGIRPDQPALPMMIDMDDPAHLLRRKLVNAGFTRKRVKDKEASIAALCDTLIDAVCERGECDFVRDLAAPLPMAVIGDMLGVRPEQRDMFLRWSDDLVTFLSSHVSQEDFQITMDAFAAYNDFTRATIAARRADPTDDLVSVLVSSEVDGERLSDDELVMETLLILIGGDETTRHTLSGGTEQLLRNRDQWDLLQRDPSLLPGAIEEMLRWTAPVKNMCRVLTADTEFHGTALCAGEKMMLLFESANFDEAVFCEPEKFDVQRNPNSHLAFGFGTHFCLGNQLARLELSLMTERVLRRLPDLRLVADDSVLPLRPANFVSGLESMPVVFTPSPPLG

Turning to `Nc1ccc(Nc2ccncc2)cc1` [4b, N^1-(Pyridin-4-yl)benzene-1,4-diamine], on CYP125 (compound 100 µM, P450 5 µM), the “CYP125 Δλmax (nm) HS” value came out at 1 nm and the “CYP125 Δλmax (nm) LS” value was 31 nm. Further, the “CYP125 LS/HS” value on CYP125 (setting [1]) was determined as 1.3. For the same compound, the “CYP142 Δλmax (nm)” value on CYP142 is 3 nm.
With `O=[N+]([O-])c1ccc(Br)c2ccncc12` [compound 59], the “Δλmax (nm) CYP125, fragment screen” value on CYP125 is on record as 0 nm. On CYP142, the “Δλmax (nm) CYP142, fragment screen” value turned out to be 0 nm. The “Δλmax (nm) CYP124, fragment screen” value at CYP124 came out at 1 nm. In addition, on CYP126, the “Δλmax (nm) CYP126, fragment screen” value is recorded as 0 nm. The “Δλmax (nm) CYP144, fragment screen” value at CYP144 turned out to be 0 nm.
With `c1ccc(CCc2ccncc2)cc1` [2h, 4-Phenethylpyridine], at CYP125 (compound 100 µM, P450 5 µM), the “CYP125 Δλmax (nm) HS” value was 2 nm and the “CYP125 Δλmax (nm) LS” value is on record as 26 nm. Further, at CYP125 (setting [1]), the “CYP125 LS/HS” value came to 1. At CYP142, the “CYP142 Δλmax (nm)” value came to 2 nm.
Take `COC(=O)c1ccc(Nc2ccncc2)cc1` [4d, Methyl 4-(pyridin-4-ylamino)benzoate]: on CYP125 (compound 100 µM, P450 5 µM), the “CYP125 Δλmax (nm) HS” value turned out to be 2 nm and the “CYP125 Δλmax (nm) LS” value is 26 nm. Moreover, the “CYP125 LS/HS” value at CYP125 (setting [1]) amounted to 1. Besides, the “CYP142 Δλmax (nm)” value on CYP142 is on record as 3 nm.
As for `Clc1cccnc1Cl` [compound 61], at CYP142, the “Δλmax (nm) CYP142, fragment screen” value came out at 0 nm. In addition, the “Δλmax (nm) CYP124, fragment screen” value at CYP124 was found to be 0 nm. Moreover, the “Δλmax (nm) CYP121, fragment screen” value at CYP121 is 0 nm. Further, on CYP126, the “Δλmax (nm) CYP126, fragment screen” value is given as 0 nm. The “Δλmax (nm) CYP143, fragment screen” value at CYP143 is on record as 0 nm. Besides, the “Δλmax (nm) CYP144, fragment screen” value at CYP144 turned out to be 0 nm.
For `c1ccc(N(c2ccccc2)c2ccncc2)cc1` [2c, N,N-Diphenylpyridin-4-amine], at CYP125 (compound 100 µM, P450 5 µM), the “CYP125 Δλmax (nm) HS” value came to 2 nm and the “CYP125 Δλmax (nm) LS” value stood at 28 nm. Further, the “CYP125 LS/HS” value at CYP125 (setting [1]) came out at 1. Further, the “CYP142 Δλmax (nm)” value on CYP142 turned out to be 4 nm.
As for `Nn1cccc1C(=O)O` [compound 62], the “Δλmax (nm) CYP142, fragment screen” value at CYP142 stood at 0 nm. Moreover, the “Δλmax (nm) CYP124, fragment screen” value on CYP124 turned out to be 0 nm. In addition, at CYP126, the “Δλmax (nm) CYP126, fragment screen” value is recorded as 0 nm. In addition, the “Δλmax (nm) CYP143, fragment screen” value at CYP143 was determined as 4 nm. The “Δλmax (nm) CYP144, fragment screen” value on CYP144 is 0 nm.
Consider `COc1ccc(Cc2ccncc2)cc1` [3b, 4-(4-Methoxybenzyl)pyridine], for which, on CYP125 (compound 100 µM, P450 5 µM), the “CYP125 Δλmax (nm) HS” value came to 1 nm and the “CYP125 Δλmax (nm) LS” value is recorded as 25 nm. The “CYP125 LS/HS” value at CYP125 (setting [1]) worked out at 1. The “CYP142 Δλmax (nm)” value at CYP142 was 2 nm.
For `Nc1cccc(Nc2ccncc2)c1` [4a, N^1-(Pyridin-4-yl)benzene-1,3-diamine] the same measures were 1 nm, 22 nm, 0.9 and 3 nm.
For the compound 3-(Pyridin-4-ylmethyl)aniline [3d], at CYP125 (compound 100 µM, P450 5 µM), the “CYP125 Δλmax (nm) HS” value turned out to be 3 nm and the “CYP125 Δλmax (nm) LS” value is 29 nm.
With `Nc1cccnc1O` [compound 45], the “Δλmax (nm) CYP125, fragment screen” value on CYP125 came to 0 nm. Besides, the “Δλmax (nm) CYP142, fragment screen” value at CYP142 was found to be 0 nm. The “Δλmax (nm) CYP124, fragment screen” value at CYP124 came out at 0 nm. On CYP126, the “Δλmax (nm) CYP126, fragment screen” value is on record as 0 nm. The “Δλmax (nm) CYP143, fragment screen” value at CYP143 is on record as 0 nm. The “Δλmax (nm) CYP144, fragment screen” value on CYP144 is 0 nm.
Turning to `O=S(=O)(c1ccccc1)c1ccncc1` [2e, 4-(Phenylsulfonyl)pyridine], at CYP125 (compound 100 µM, P450 5 µM), the “CYP125 Δλmax (nm) HS” value was found to be 0 nm. Also, at CYP142, the “CYP142 Δλmax (nm)” value came out at 0 nm.
With `Clc1nccc2ccc(Br)cc12` [compound 37], the “Δλmax (nm) CYP125, fragment screen” value on CYP125 is 0 nm. On CYP142, the “Δλmax (nm) CYP142, fragment screen” value amounted to 0 nm. Further, the “Δλmax (nm) CYP124, fragment screen” value at CYP124 amounted to 0 nm. Also, the “Δλmax (nm) CYP121, fragment screen” value on CYP121 is recorded as -3 nm. Further, the “Δλmax (nm) CYP126, fragment screen” value on CYP126 came out at 0 nm. The “Δλmax (nm) CYP144, fragment screen” value on CYP144 worked out at 0 nm.
With `COc1ncccc1C(=O)O` [compound 65], the “Δλmax (nm) CYP142, fragment screen” value on CYP142 was found to be 0 nm. The “Δλmax (nm) CYP124, fragment screen” value on CYP124 was determined as 0 nm. Moreover, at CYP121, the “Δλmax (nm) CYP121, fragment screen” value is reported as 0 nm. The “Δλmax (nm) CYP126, fragment screen” value at CYP126 turned out to be 0 nm. The “Δλmax (nm) CYP143, fragment screen” value at CYP143 is 1 nm. Further, the “Δλmax (nm) CYP144, fragment screen” value on CYP144 was determined as 0 nm.
As to `OCc1cccc(Nc2ccncc2)c1` [4g], the “CYP125 Δλmax (nm) HS” value on CYP125 (compound 100 µM, P450 5 µM) is given as 0 nm. At CYP142, the “CYP142 Δλmax (nm)” value is 1 nm.
Regarding `Brc1cccc(Nc2ccncc2)c1` [4h, N-(3-Bromophenyl)pyridin-4-amine], the “CYP125 Δλmax (nm) LS” value at CYP125 (compound 100 µM, P450 5 µM) came to 31 nm. Further, at CYP125 (setting [1]), the “CYP125 LS/HS” value is given as 1.4. Moreover, at CYP142, the “CYP142 Δλmax (nm)” value worked out at 4 nm.
With `O=C(O)c1cccc(Nc2ccncc2)c1` [4e, 3-(Pyridin-4-ylamino)benzoic Acid], the “CYP125 Δλmax (nm) HS” value on CYP125 (compound 100 µM, P450 5 µM) is 0 nm. For the same compound, the “CYP142 Δλmax (nm)” value on CYP142 stood at 0 nm.
`Nc1ccc(Cc2ccncc2)cc1` [3e]: the “CYP125 LS/HS” value on CYP125 is recorded as 1.7. At CYP125 (compound 100 µM, P450 5 µM), the “CYP125 Δλmax (nm) HS” value is on record as 3 nm and the “CYP125 Δλmax (nm) LS” value is on record as 29 nm. Further, the “CYP142 Δλmax (nm)” value at CYP142 was found to be 3 nm.
With `Nc1cccnc1N` [compound 66], the “Δλmax (nm) CYP142, fragment screen” value on CYP142 was found to be 0 nm. Moreover, the “Δλmax (nm) CYP124, fragment screen” value on CYP124 is reported as 0 nm. For the same compound, the “Δλmax (nm) CYP126, fragment screen” value on CYP126 was 0 nm. For the same compound, the “Δλmax (nm) CYP143, fragment screen” value on CYP143 worked out at 0 nm. At CYP144, the “Δλmax (nm) CYP144, fragment screen” value worked out at 0 nm.
For `O=C(c1ccccc1)c1ccncc1` [2f], the “CYP125 Δλmax (nm) HS” value on CYP125 (compound 100 µM, P450 5 µM) was found to be 0 nm. The “CYP142 Δλmax (nm)” value at CYP142 was 0 nm.
Take `c1ccc(Oc2ccncc2)cc1` [2d, 4-Phenoxypyridine]: at CYP125 (compound 100 µM, P450 5 µM), the “CYP125 Δλmax (nm) HS” value was 1 nm and the “CYP125 Δλmax (nm) LS” value came to 25 nm. Also, the “CYP125 LS/HS” value on CYP125 (setting [1]) is 1. Further, the “CYP142 Δλmax (nm)” value on CYP142 came out at 2 nm.
Turning to `O=C(O)c1ccc(Nc2ccncc2)cc1` [4f, 4-(Pyridin-4-ylamino)benzoic Acid], the “CYP125 Δλmax (nm) HS” value on CYP125 (compound 100 µM, P450 5 µM) came out at 1 nm. The “CYP142 Δλmax (nm)” value on CYP142 is recorded as 0 nm.
For `C(=C\c1ccncc1)/c1ccccc1` [2g, (E)-4-Styrylpyridine], on CYP125 (compound 100 µM, P450 5 µM), the “CYP125 Δλmax (nm) LS” value was 29 nm. For the same compound, the “CYP125 LS/HS” value on CYP125 (setting [1]) came out at 1.4. Besides, the “CYP142 Δλmax (nm)” value on CYP142 is given as 3 nm.
On to `CN(c1ccccc1)c1ccncc1` [2b, N-Methyl-N-phenylpyridin-4-amine], for which, on CYP125 (compound 100 µM, P450 5 µM), the “CYP125 Δλmax (nm) HS” value is reported as 1 nm and the “CYP125 Δλmax (nm) LS” value is recorded as 25 nm. Besides, on CYP125 (setting [1]), the “CYP125 LS/HS” value amounted to 0.9. Moreover, the “CYP142 Δλmax (nm)” value on CYP142 came to 4 nm.
In the case of `Brc1ccc(Nc2ccncc2)cc1` [4i, N-(4-Bromophenyl)pyridin-4-amine], at CYP125 (compound 100 µM, P450 5 µM), the “CYP125 Δλmax (nm) HS” value is listed as 2 nm and the “CYP125 Δλmax (nm) LS” value came out at 29 nm. The “CYP125 LS/HS” value at CYP125 (setting [1]) is reported as 1.2. In addition, the “CYP142 Δλmax (nm)” value on CYP142 was 4 nm.
For the compound `COc1cccc(Cc2ccncc2)c1` [3a, 4-(3-Methoxybenzyl)pyridine], on CYP125 (compound 100 µM, P450 5 µM), the “CYP125 Δλmax (nm) HS” value is on record as 1 nm and the “CYP125 Δλmax (nm) LS” value worked out at 27 nm. Moreover, on CYP125 (setting [1]), the “CYP125 LS/HS” value is listed as 1.1. Moreover, on CYP142, the “CYP142 Δλmax (nm)” value is 2 nm.
For `COC(=O)c1cccc(Nc2ccncc2)c1` [4c, Methyl/Ethyl 3-(pyridin-4-ylamino)benzoate] the same measures were 1 nm, 27 nm, 1 and 3 nm.
